In patent US12054447B2, “PCNA inhibitors” (City of Hope, priority 2015, dated 2024):

Test system: RPMI-8226
Experiment: NCI-60 panel test
Assay type: cell-based
Conditions: Homo sapiens; RPMI-8226, NCI-60 5-dose study
Method: (§1) FIG. 7. NCI-60 panel test. The effect of AOH1160 on growth of the NCI-60 panel, which consists of 60 cancer cell lines representing 9 major cancer types, was tested in a 5-dose study. Shown are the Log IC50 values determined for each cell line. […] This study was performed by the National Institute of Cancer.
(§2) As observed in FIG. 7, the effect of AOH1160 on growth of the NCI-60 panel, which consists of 60 cancer cell lines representing 9 major cancer types, was tested in a 5-dose study. Shown are the Log IC50 values determined for each cell line.

SMILES	GI50
COc1ccc(Oc2ccccc2NC(=O)CNC(=O)c2cccc3ccccc23)cc1 [PCNA6]	1.12 µM
O=C(CNC(=O)c1cccc2ccccc12)Nc1ccccc1Oc1cccc(O)c1 [PCNA2]	8.13 µM
O=C(CNC(=O)c1cccc2ccccc12)Nc1ccccc1Oc1ccc(O)cc1 [PCNA1]	0.977 µM

Test system: HL-60(TB)
Experiment: NCI-60 panel test
Assay type: cell-based
Conditions: Homo sapiens, NCI-60 5-dose study
Method: as §1, §2

SMILES	GI50
COc1ccc(Oc2ccccc2NC(=O)CNC(=O)c2cccc3ccccc23)cc1 [PCNA6]	0.617 µM
O=C(CNC(=O)c1cccc2ccccc12)Nc1ccccc1Oc1cccc(O)c1 [PCNA2]	1.32 µM
O=C(CNC(=O)c1cccc2ccccc12)Nc1ccccc1Oc1ccc(O)cc1 [PCNA1]	0.708 µM

Test system: UO-31
Experiment: NCI-60 panel test
Assay type: cell-based
Conditions: Homo sapiens; UO-31, NCI-60 5-dose study
Method: as §1, §2

SMILES	GI50
COc1ccc(Oc2ccccc2NC(=O)CNC(=O)c2cccc3ccccc23)cc1 [PCNA6]	1.48 µM
O=C(CNC(=O)c1cccc2ccccc12)Nc1ccccc1Oc1cccc(O)c1 [PCNA2]	16.6 µM
O=C(CNC(=O)c1cccc2ccccc12)Nc1ccccc1Oc1ccc(O)cc1 [PCNA1]	1.78 µM

Test system: T-47D
Experiment: NCI-60 panel test
Assay type: cell-based
Conditions: Homo sapiens, T47D, NCI-60 5-dose study
Method: as §1, §2

SMILES	GI50
COc1ccc(Oc2ccccc2NC(=O)CNC(=O)c2cccc3ccccc23)cc1 [PCNA6]	2.51 µM
O=C(CNC(=O)c1cccc2ccccc12)Nc1ccccc1Oc1cccc(O)c1 [PCNA2]	9.77 µM
O=C(CNC(=O)c1cccc2ccccc12)Nc1ccccc1Oc1ccc(O)cc1 [PCNA1]	1.55 µM

Test system: UACC-62
Experiment: NCI-60 panel test
Assay type: cell-based
Conditions: Homo sapiens; UACC-62, NCI-60 5-dose study
Method: as §1, §2

SMILES	GI50
COc1ccc(Oc2ccccc2NC(=O)CNC(=O)c2cccc3ccccc23)cc1 [PCNA6]	0.562 µM
O=C(CNC(=O)c1cccc2ccccc12)Nc1ccccc1Oc1cccc(O)c1 [PCNA2]	1.62 µM
O=C(CNC(=O)c1cccc2ccccc12)Nc1ccccc1Oc1ccc(O)cc1 [PCNA1]	1.17 µM

Test system: OVCAR-4
Experiment: NCI-60 panel test
Assay type: cell-based
Conditions: Homo sapiens; OVCAR-4, NCI-60 5-dose study
Method: as §1, §2

SMILES	GI50
COc1ccc(Oc2ccccc2NC(=O)CNC(=O)c2cccc3ccccc23)cc1 [PCNA6]	2.24 µM
O=C(CNC(=O)c1cccc2ccccc12)Nc1ccccc1Oc1cccc(O)c1 [PCNA2]	25.1 µM
O=C(CNC(=O)c1cccc2ccccc12)Nc1ccccc1Oc1ccc(O)cc1 [PCNA1]	2.82 µM

Test system: NCI-H460
Experiment: NCI-60 panel test
Assay type: cell-based
Conditions: Homo sapiens; NCI-H460, NCI-60 5-dose study
Method: as §1, §2

SMILES	GI50
COc1ccc(Oc2ccccc2NC(=O)CNC(=O)c2cccc3ccccc23)cc1 [PCNA6]	0.851 µM
O=C(CNC(=O)c1cccc2ccccc12)Nc1ccccc1Oc1cccc(O)c1 [PCNA2]	5.75 µM
O=C(CNC(=O)c1cccc2ccccc12)Nc1ccccc1Oc1ccc(O)cc1 [PCNA1]	0.977 µM

Test system: SR
Experiment: NCI-60 panel test
Assay type: cell-based
Conditions: Homo sapiens, NCI-60 5-dose study
Method: as §1, §2

SMILES	GI50
COc1ccc(Oc2ccccc2NC(=O)CNC(=O)c2cccc3ccccc23)cc1 [PCNA6]	0.166 µM
O=C(CNC(=O)c1cccc2ccccc12)Nc1ccccc1Oc1cccc(O)c1 [PCNA2]	1.05 µM
O=C(CNC(=O)c1cccc2ccccc12)Nc1ccccc1Oc1ccc(O)cc1 [PCNA1]	0.457 µM

Test system: ACHN
Experiment: NCI-60 panel test
Assay type: cell-based
Conditions: Homo sapiens, NCI-60 5-dose study
Method: as §1, §2

SMILES	GI50
COc1ccc(Oc2ccccc2NC(=O)CNC(=O)c2cccc3ccccc23)cc1 [PCNA6]	1.51 µM
O=C(CNC(=O)c1cccc2ccccc12)Nc1ccccc1Oc1cccc(O)c1 [PCNA2]	17.4 µM
O=C(CNC(=O)c1cccc2ccccc12)Nc1ccccc1Oc1ccc(O)cc1 [PCNA1]	1.86 µM

Test system: HT29
Experiment: NCI-60 panel test
Assay type: cell-based
Conditions: Homo sapiens, HT-29; HT29, NCI-60 5-dose study
Method: as §1, §2

SMILES	GI50
COc1ccc(Oc2ccccc2NC(=O)CNC(=O)c2cccc3ccccc23)cc1 [PCNA6]	0.575 µM
O=C(CNC(=O)c1cccc2ccccc12)Nc1ccccc1Oc1cccc(O)c1 [PCNA2]	21.4 µM
O=C(CNC(=O)c1cccc2ccccc12)Nc1ccccc1Oc1ccc(O)cc1 [PCNA1]	1 µM

Test system: SK-MEL-5
Experiment: NCI-60 panel test
Assay type: cell-based
Conditions: Homo sapiens; SK-MEL-5, NCI-60 5-dose study
Method: as §1, §2

SMILES	GI50
COc1ccc(Oc2ccccc2NC(=O)CNC(=O)c2cccc3ccccc23)cc1 [PCNA6]	25.1 µM
O=C(CNC(=O)c1cccc2ccccc12)Nc1ccccc1Oc1cccc(O)c1 [PCNA2]	25.1 µM
O=C(CNC(=O)c1cccc2ccccc12)Nc1ccccc1Oc1ccc(O)cc1 [PCNA1]	25.1 µM

Test system: DU-145
Experiment: NCI-60 panel test
Assay type: cell-based
Conditions: Homo sapiens; DU-145, NCI-60 5-dose study
Method: as §1, §2

SMILES	GI50
COc1ccc(Oc2ccccc2NC(=O)CNC(=O)c2cccc3ccccc23)cc1 [PCNA6]	1.02 µM
O=C(CNC(=O)c1cccc2ccccc12)Nc1ccccc1Oc1cccc(O)c1 [PCNA2]	9.55 µM
O=C(CNC(=O)c1cccc2ccccc12)Nc1ccccc1Oc1ccc(O)cc1 [PCNA1]	1.15 µM

Test system: A549/ATCC
Experiment: NCI-60 panel test
Assay type: cell-based
Conditions: Homo sapiens, NCI-60 5-dose study
Method: as §1, §2

SMILES	GI50
COc1ccc(Oc2ccccc2NC(=O)CNC(=O)c2cccc3ccccc23)cc1 [PCNA6]	1.26 µM
O=C(CNC(=O)c1cccc2ccccc12)Nc1ccccc1Oc1cccc(O)c1 [PCNA2]	9.55 µM
O=C(CNC(=O)c1cccc2ccccc12)Nc1ccccc1Oc1ccc(O)cc1 [PCNA1]	1.48 µM

Test system: EKVX
Experiment: NCI-60 panel test
Assay type: cell-based
Conditions: Homo sapiens, NCI-60 5-dose study
Method: as §1, §2

SMILES	GI50
COc1ccc(Oc2ccccc2NC(=O)CNC(=O)c2cccc3ccccc23)cc1 [PCNA6]	1.38 µM
O=C(CNC(=O)c1cccc2ccccc12)Nc1ccccc1Oc1cccc(O)c1 [PCNA2]	8.91 µM
O=C(CNC(=O)c1cccc2ccccc12)Nc1ccccc1Oc1ccc(O)cc1 [PCNA1]	1.17 µM

Test system: SF-539
Experiment: NCI-60 panel test
Assay type: cell-based
Conditions: Homo sapiens; SF-539, NCI-60 5-dose study
Method: as §1, §2

SMILES	GI50
COc1ccc(Oc2ccccc2NC(=O)CNC(=O)c2cccc3ccccc23)cc1 [PCNA6]	0.575 µM
O=C(CNC(=O)c1cccc2ccccc12)Nc1ccccc1Oc1cccc(O)c1 [PCNA2]	4.07 µM
O=C(CNC(=O)c1cccc2ccccc12)Nc1ccccc1Oc1ccc(O)cc1 [PCNA1]	0.692 µM

Test system: TK-10
Experiment: NCI-60 panel test
Assay type: cell-based
Conditions: Homo sapiens; TK-10, NCI-60 5-dose study
Method: as §1, §2

SMILES	GI50
COc1ccc(Oc2ccccc2NC(=O)CNC(=O)c2cccc3ccccc23)cc1 [PCNA6]	2.14 µM
O=C(CNC(=O)c1cccc2ccccc12)Nc1ccccc1Oc1cccc(O)c1 [PCNA2]	25.1 µM
O=C(CNC(=O)c1cccc2ccccc12)Nc1ccccc1Oc1ccc(O)cc1 [PCNA1]	17 µM

Test system: HS 578T
Experiment: NCI-60 panel test
Assay type: cell-based
Conditions: Homo sapiens, NCI-60 5-dose study
Method: as §1, §2

SMILES	GI50
COc1ccc(Oc2ccccc2NC(=O)CNC(=O)c2cccc3ccccc23)cc1 [PCNA6]	1.7 µM
O=C(CNC(=O)c1cccc2ccccc12)Nc1ccccc1Oc1cccc(O)c1 [PCNA2]	5.75 µM
O=C(CNC(=O)c1cccc2ccccc12)Nc1ccccc1Oc1ccc(O)cc1 [PCNA1]	1.35 µM

Test system: SF-295
Experiment: NCI-60 panel test
Assay type: cell-based
Conditions: Homo sapiens; SF-295, NCI-60 5-dose study
Method: as §1, §2

SMILES	GI50
COc1ccc(Oc2ccccc2NC(=O)CNC(=O)c2cccc3ccccc23)cc1 [PCNA6]	0.398 µM
O=C(CNC(=O)c1cccc2ccccc12)Nc1ccccc1Oc1cccc(O)c1 [PCNA2]	2.19 µM
O=C(CNC(=O)c1cccc2ccccc12)Nc1ccccc1Oc1ccc(O)cc1 [PCNA1]	0.617 µM

Test system: OVCAR-3
Experiment: NCI-60 panel test
Assay type: cell-based
Conditions: Homo sapiens; OVCAR-3, NCI-60 5-dose study
Method: as §1, §2

SMILES	GI50
COc1ccc(Oc2ccccc2NC(=O)CNC(=O)c2cccc3ccccc23)cc1 [PCNA6]	0.389 µM
O=C(CNC(=O)c1cccc2ccccc12)Nc1ccccc1Oc1cccc(O)c1 [PCNA2]	1.51 µM
O=C(CNC(=O)c1cccc2ccccc12)Nc1ccccc1Oc1ccc(O)cc1 [PCNA1]	0.741 µM

Test system: MDA-MB-231/ATCC
Experiment: NCI-60 panel test
Assay type: cell-based
Conditions: Homo sapiens, NCI-60 5-dose study
Method: as §1, §2

SMILES	GI50
COc1ccc(Oc2ccccc2NC(=O)CNC(=O)c2cccc3ccccc23)cc1 [PCNA6]	2.24 µM
O=C(CNC(=O)c1cccc2ccccc12)Nc1ccccc1Oc1cccc(O)c1 [PCNA2]	17.8 µM
O=C(CNC(=O)c1cccc2ccccc12)Nc1ccccc1Oc1ccc(O)cc1 [PCNA1]	3.16 µM

Test system: SK-N-DZ
Experiment: Cell growth, CellTitor-Glo assay, 72 h
Assay type: cell-based
Conditions: Homo sapiens
Method: (§3) The human NB cell lines, SK-N-DZ, SK-N-BE(2)c, SK-N-AS, and LAN-5 obtained from the American Type Culture Collection (Rockville, MD), were cultured in DMEM with 10% fetal bovine serum (FBS), 100 units/ml penicillin, and 100 μg/ml streptomycin in the presence of 5% CO2 at 37° C. Human PBMCs from a healthy donor were purchased from Sanguine BioSciences (Valencia, CA) and grown in RPMI1640 with 10% FBS, 100 units/ml penicillin, 100 μg/ml streptomycin, and 10 ng/ml IL-2 in the presence of 5% CO2 at 37° C. Human embryonic progenitor cell line 7SM0032 was acquired from Millipore (Billerica, MA) and grown in the hEPM-1 Media Kit purchased from the same company. The plasmid pCBASce expresses the rare cutting I-SceI meganuclease. The U20S-derived cell lines, DR-GFP and EJ5-GFP, each contain a stably transfected reporter gene for DSB repair mediated by HR and end joining (EJ), respectively. These cell lines were cultured in DMEM medium with 10% FBS at 37° C. in the presence of 5% CO2.
(§4) To measure the effect of the compounds on cell growth, cells were seeded at 3×10^4/ml into a 96-well plate. Once attached, cells were treated with various concentrations of AOH1160 for 72 h. Cell growth was measured by the CellTitor-Glo assay (Promega, Madison, WI) according to the manufacturer's instructions. To measure apoptosis, cells were seeded at 1×10^5/ml onto a chamber slide. Once attached, cells were treated with the 500 nM AOH1160 for 24 h. Cells were fixed and analyzed by a TUNEL assay using the TMR red in situ cell death detection kit (Roche Diagnostics, Indianapolis, IN).

SMILES	IC50
COc1ccc(Oc2ccccc2NC(=O)CNC(=O)c2cccc3ccccc23)cc1 [PCNA6]	0.271 µM
O=C(CNC(=O)c1cccc2ccccc12)Nc1ccccc1Oc1cccc(O)c1 [PCNA2]	0.539 µM
O=C(CNC(=O)c1cccc2ccccc12)Nc1ccccc1Oc1ccc(O)cc1 [PCNA1]	0.467 µM

Test system: SK-N-BE(2)c
Experiment: Cell growth, CellTitor-Glo assay, 72 h
Assay type: cell-based
Conditions: Homo sapiens
Method: as §3, §4

SMILES	IC50
COc1ccc(Oc2ccccc2NC(=O)CNC(=O)c2cccc3ccccc23)cc1 [PCNA6]	0.234 µM
O=C(CNC(=O)c1cccc2ccccc12)Nc1ccccc1Oc1cccc(O)c1 [PCNA2]	0.485 µM
O=C(CNC(=O)c1cccc2ccccc12)Nc1ccccc1Oc1ccc(O)cc1 [PCNA1]	0.49 µM

Test system: SK-N-AS
Experiment: Cell growth, CellTitor-Glo assay, 72 h
Assay type: cell-based
Conditions: Homo sapiens
Method: as §3, §4

SMILES	IC50
COc1ccc(Oc2ccccc2NC(=O)CNC(=O)c2cccc3ccccc23)cc1 [PCNA6]	0.091 µM
O=C(CNC(=O)c1cccc2ccccc12)Nc1ccccc1Oc1cccc(O)c1 [PCNA2]	0.192 µM
O=C(CNC(=O)c1cccc2ccccc12)Nc1ccccc1Oc1ccc(O)cc1 [PCNA1]	0.157 µM

Test system: PBMC
Experiment: Cell growth, CellTitor-Glo assay, 72 h
Assay type: cell-based, human
Conditions: Homo sapiens; PBMC (non-malignant)
Method: as §3, §4

SMILES	IC50
COc1ccc(Oc2ccccc2NC(=O)CNC(=O)c2cccc3ccccc23)cc1 [PCNA6]	> 20 µM
O=C(CNC(=O)c1cccc2ccccc12)Nc1ccccc1Oc1cccc(O)c1 [PCNA2]	> 20 µM
O=C(CNC(=O)c1cccc2ccccc12)Nc1ccccc1Oc1ccc(O)cc1 [PCNA1]	> 20 µM
